What all share (format): functional
Assay [1] concerns Staphylococcus aureus. The assay can be described thus: Antibacterial activity against Staphylococcus aureus ATCC 11632 after 18 to 24 hrs by NCCLS M7-A5 based agar dilution method. Background: In agar dilution the substance is mixed into plates at graded concentrations.
Assay [2] deals with Escherichia coli. The assay can be described thus: Antibacterial activity against Escherichia coli ATCC 25922 assessed as zone of inhibition at 100 ug/disc after 24 hrs by agar disc diffusion method. The note with it: ATCC 25922, 24 h, read-out: DIZ.
For assay [3], the system named is Candida albicans. As to the kind of experiment: Antifungal activity against Candida albicans ATCC 90028 after 18 to 24 hrs by NCCLS M7-A5 based agar dilution method.
In assay [4] the test system is Escherichia coli. The assay can be described thus: Antibacterial activity against Escherichia coli ATCC 25922 after 18 to 24 hrs by NCCLS M7-A5 based agar dilution method.
The test system of assay [5] is Mycobacterium tuberculosis. As to the kind of experiment: Antituberculosis activity against 10^7 cfu/mL Mycobacterium tuberculosis H37Rv after 28 days. As to conditions: 672 h.
Assay [6] deals with Staphylococcus aureus. As to the kind of experiment: Antibacterial activity against Staphylococcus aureus ATCC 11632 assessed as zone of inhibition at 100 ug/disc after 24 hrs by agar disc diffusion method. The note with it: ATCC 11632, 24 h, read-out: DIZ.
In assay [7] the test system is Candida albicans. The assay can be described thus: Antifungal activity against Candida albicans ATCC 90028 assessed as zone of inhibition at 100 ug/disc after 48 hrs by agar disc diffusion method. The note with it: ATCC 90028, 48 h, read-out: DIZ.

Structures are written as SMILES. Values after ≈ are worked out from the molar mass of the structure shown.

Broadly, the MIC is the lowest concentration that inhibits growth of the organism. A high value points to a less susceptible organism.

With `O=C(C[C@@H](c1ccccc1)[C@@H]1CCCc2[se]nnc21)c1ccccc1`, the MIC with Staphylococcus aureus [1] turned out to be 12.5 µg/mL (≈ 31.6 µM); in the assay with Candida albicans [3], 25 µg/mL (≈ 63.2 µM); with Escherichia coli [4] it was 12.5 µg/mL (≈ 31.6 µM); in assay [5] it was 15.8 µM (≈ 6.25 µg/mL). The zone of inhibition at 100 µg/disc in the assay on Escherichia coli [2] came out at 18 mm; in the assay with Staphylococcus aureus [6], 15 mm; in the assay with Candida albicans [7], 15 mm.
For the compound `O=C(C[C@@H](c1ccccc1)[C@@H]1CCCc2[se]nnc21)c1ccc(Cl)cc1`, the MIC with Staphylococcus aureus [1] worked out at 12.5 µg/mL (≈ 29.1 µM); in the assay on Candida albicans [3], 12.5 µg/mL (≈ 29.1 µM); in the assay with Escherichia coli [4], 25 µg/mL (≈ 58.2 µM); in assay [5] it was 7.2 µM (≈ 3.09 µg/mL). Besides, the results for the zone of inhibition at 100 µg/disc with Escherichia coli [2], in the assay on Staphylococcus aureus [6] and in the assay with Candida albicans [7] were 10 mm, 15 mm and 15 mm, respectively.
In the case of `COc1ccc(C(=O)C[C@@H](c2ccccc2)[C@@H]2CCCc3[se]nnc32)cc1`, the minimal inhibitory concentration (MIC) is 25 µg/mL (≈ 58.8 µM) against Staphylococcus aureus [1], 25 µg/mL (≈ 58.8 µM) with Candida albicans [3], 12.5 µg/mL (≈ 29.4 µM) in the assay with Escherichia coli [4] and 29.3 µM (≈ 12.5 µg/mL) in assay [5]. In addition, the figures for the zone of inhibition at 100 µg/disc in the assay with Escherichia coli [2], in the assay on Staphylococcus aureus [6] and in the assay with Candida albicans [7] were 12 mm, 15 mm and 15 mm, respectively.
`O=C(C[C@@H](c1ccccc1)[C@@H]1CCCc2[se]nnc21)c1ccc2ccccc2c1`: the MIC against Staphylococcus aureus [1] came to 25 µg/mL (≈ 56.1 µM); against Candida albicans [3] it was 50 µg/mL (≈ 112 µM); in the assay with Escherichia coli [4], 25 µg/mL (≈ 56.1 µM); in assay [5], 28 µM (≈ 12.5 µg/mL). The zone of inhibition at 100 µg/disc in the assay with Escherichia coli [2] worked out at 10 mm; with Staphylococcus aureus [6] it was 15 mm; with Candida albicans [7], 10 mm.
As for `Cc1ccc([C@H](CC(=O)c2ccccc2)[C@@H]2CCCc3[se]nnc32)cc1`, the MIC against Staphylococcus aureus [1] amounted to 12.5 µg/mL (≈ 30.5 µM); against Candida albicans [3], 25 µg/mL (≈ 61.1 µM); in the assay on Escherichia coli [4] it was 25 µg/mL (≈ 61.1 µM); in assay [5], 15.2 µM (≈ 6.22 µg/mL). In addition, the zone of inhibition at 100 µg/disc with Escherichia coli [2] is below 10 mm; with Staphylococcus aureus [6], 15 mm; with Candida albicans [7], 13 mm.
With `O=C(C[C@@H](c1ccc(Cl)cc1)[C@@H]1CCCc2[se]nnc21)c1ccccc1`, the minimal inhibitory concentration (MIC) in the assay with Staphylococcus aureus [1] stood at 12.5 µg/mL (≈ 29.1 µM); against Candida albicans [3] it was 25 µg/mL (≈ 58.2 µM); against Escherichia coli [4], 12.5 µg/mL (≈ 29.1 µM); in assay [5], 3.6 µM (≈ 1.55 µg/mL). Besides, the values for the zone of inhibition at 100 µg/disc in the assay with Escherichia coli [2], in the assay with Staphylococcus aureus [6] and in the assay with Candida albicans [7] were 18 mm, 16 mm and 15 mm, respectively.
For `Cc1ccc(C(=O)C[C@@H](c2ccc(Cl)cc2)[C@@H]2CCCc3[se]nnc32)cc1`, the MIC in the assay with Staphylococcus aureus [1] was determined as 25 µg/mL (≈ 56.3 µM); against Candida albicans [3], 12.5 µg/mL (≈ 28.2 µM); in the assay with Escherichia coli [4] it was 12.5 µg/mL (≈ 28.2 µM); in assay [5], 3.5 µM (≈ 1.55 µg/mL). The zone of inhibition at 100 µg/disc with Escherichia coli [2] came to 15 mm; in the assay with Staphylococcus aureus [6] it was 18 mm; with Candida albicans [7] it was 17 mm.
Regarding `O=C(C[C@@H](c1ccc(Cl)cc1)[C@@H]1CCCc2[se]nnc21)c1ccc(Cl)cc1`, the MIC against Staphylococcus aureus [1] is 6.25 µg/mL (≈ 13.5 µM); in the assay on Candida albicans [3], 12.5 µg/mL (≈ 26.9 µM); against Escherichia coli [4], 6.25 µg/mL (≈ 13.5 µM); in assay [5] it was 3.3 µM (≈ 1.53 µg/mL). Moreover, the zone of inhibition at 100 µg/disc in the assay with Escherichia coli [2] is 20 mm; in the assay on Staphylococcus aureus [6], 20 mm; with Candida albicans [7], 15 mm.
For `Cc1ccc(C(=O)C[C@@H](c2ccccc2)[C@@H]2CCCc3[se]nnc32)cc1`, the MIC with Staphylococcus aureus [1] stood at 25 µg/mL (≈ 61.1 µM); with Candida albicans [3], 25 µg/mL (≈ 61.1 µM); with Escherichia coli [4], 12.5 µg/mL (≈ 30.5 µM). Besides, the zone of inhibition at 100 µg/disc stood at 17 mm with Escherichia coli [2], 18 mm in the assay on Staphylococcus aureus [6] and 12 mm in the assay with Candida albicans [7].
As to `COc1ccc([C@H](CC(=O)c2ccccc2)[C@@H]2CCCc3[se]nnc32)cc1`, the minimum inhibitory concentration (MIC) against Staphylococcus aureus [1] amounted to 25 µg/mL (≈ 58.8 µM); in the assay with Candida albicans [3] it was 50 µg/mL (≈ 118 µM); with Escherichia coli [4] it was 25 µg/mL (≈ 58.8 µM). For the same compound, the results for the zone of inhibition at 100 µg/disc with Escherichia coli [2], in the assay with Staphylococcus aureus [6] and with Candida albicans [7] were 15 mm, 18 mm and 12 mm, respectively.
With `COc1ccc(C(=O)C[C@@H](c2ccc(Cl)cc2)[C@@H]2CCCc3[se]nnc32)cc1`, the MIC was 12.5 µg/mL (≈ 27.2 µM) in the assay on Staphylococcus aureus [1], 25 µg/mL (≈ 54.4 µM) against Candida albicans [3] and 12.5 µg/mL (≈ 27.2 µM) in the assay with Escherichia coli [4]. The figures for the zone of inhibition at 100 µg/disc in the assay on Escherichia coli [2], in the assay on Staphylococcus aureus [6] and in the assay with Candida albicans [7] were 20 mm, 20 mm and 15 mm, respectively.
Take `c1ccc(-c2nn[se]c2[C@@H](c2ccccc2)[C@@H]2CCCc3[se]nnc32)cc1`: the minimal inhibitory concentration (MIC) with Staphylococcus aureus [1] was 25 µg/mL (≈ 51.6 µM); in the assay with Candida albicans [3], 25 µg/mL (≈ 51.6 µM); against Escherichia coli [4] it was 25 µg/mL (≈ 51.6 µM); in assay [5], 51.6 µM (≈ 25 µg/mL). The results for the zone of inhibition at 100 µg/disc with Escherichia coli [2], with Staphylococcus aureus [6] and with Candida albicans [7] were 12 mm, 15 mm and 15 mm, respectively.
In the case of `Clc1ccc(-c2nn[se]c2[C@@H](c2ccccc2)[C@@H]2CCCc3[se]nnc32)cc1`, the MIC against Staphylococcus aureus [1] turned out to be 25 µg/mL (≈ 48.2 µM); against Candida albicans [3] it was 25 µg/mL (≈ 48.2 µM); with Escherichia coli [4], 25 µg/mL (≈ 48.2 µM); in assay [5] it was 48.2 µM (≈ 25 µg/mL). Also, the zone of inhibition at 100 µg/disc in the assay with Escherichia coli [2] was 13 mm; in the assay with Staphylococcus aureus [6], 10 mm; in the assay with Candida albicans [7] it was 13 mm.

The values above are taken from ChEMBL document CHEMBL1833855, “A facile synthesis of carbocycle-fused mono and bis-1,2,3-selenadiazoles and their antimicrobial and antimycobacterial studies” (2011).
